Two compounds from US7919127B2, “Pulsatilla spp. extracts effective in brain function” (priority 2005, dated 2011) can be followed below.

The structures appear in SMILES notation. Where “and” joins values, the source holds several entries; their conditions need not be identical. Identical values can stand only once.

One experiment concerns α-secretase. As to the kind of experiment: Increase of α-secretase activity (sAPPα amount, western blot densitometry, W4 cell line). As to conditions: positive control, final concentration 1 mM, W4 cells, negative control average = 100.0. The format is cell-based. How it is done:
To study the effect of 70% methanol solution fraction obtained from Example 2 on the above-mentioned APP process, an experiment was conducted as follows using W4 cell line which produces APP in large amount.
The cells of W4 cell line were treated with 70% methanol solution fraction and then cultured for about 12 hours.

Experiment [1] concerns rats treated with scopolamine. As to the kind of experiment: Passive avoidance test, scopolamine-induced memory impairment. Format: in vivo, rat. As to conditions: oral, 30 mg/L; untreated control = 100%, scopolamine group = 0%. An excerpt:
The experimental device used was a shuttle box 50 cm (W)×15 cm (L)×40 cm (H). The shuttle box was divided into two rooms via a guillotine door, where one room was a light room provided with illumination while the other room was a dark room covered entirely with a black cloth thereby allowing the difference in illuminating effect. First, a rat was placed in the light room and the guillotine door was opened while the light was being turned on. Then, the rat entered the dark room within 20 seconds to seek a dark place by instinct and as soon as the rat entered the dark room the guillotine door was closed. […] The next day, the above trained rats were placed again into the light room with the light on and allowed to enter the dark room. Here, the rats were subject to an electric shock of 0.8 mA for 3 seconds via an electronic grid installed on the bottom of the room. Twenty four hours after the above acquisition trial, the rats were again placed into the light room with the light on and allowed to enter the dark room. Here, the normal rats hesitated to enter the dark room by remembering the electric shock of the previous day. The latency time was measured by setting up the maximum latency time at 300 seconds. […]

As to `CCCC(=O)O[C@@H]1[C@@H](C)[C@@]2(O)[C@@H](C=C(CO)C[C@]3(O)C(=O)C(C)=C[C@@H]23)[C@@H]2C(C)(C)[C@]12OC(=O)CCC` [PDBu, Phorbol 12,13-dibutyrate], the “Relative Density (sAPPα), Average” value in the experiment on α-secretase (average of 3 trials) is 289.3. Besides, the “Relative Density (sAPPα)” value in the experiment with α-secretase (individual trials) is 226.5 and 314.1 and 327.2. With `Nc1c2c(nc3ccccc13)CCCC2` [tacrine], the “prevention of memory impairment” value in experiment [1] was 35%.
